Legend:
[1] = system: chytrid zoospores and sporangia; details: 1% dose of a solution comprising 50% NaOH; 25, 40, and 50° C
Description: A solution comprising 50% sodium hydroxide (NaOH) was evaluated as a treatment for chytrids that could be applied to empty reactors in order to clean them for subsequent batches. A pure culture of chytrid zoospores and sporangia was treated with a 1% dose of a solution comprising 50% NaOH at temperatures of 25, 40, and 50° C. The cultures were then observed under a microscope for a reduction in the chytrid zoospores or sporangia number, or a reduction in the integrity of the chytrid cells.

chytrids = test: Haematococcus red cyst cells infected with chytrids treated in well plates (Example 15); format: cell-based
Description: Several concentrations of bleach and Lufenuron were further investigated for their effectiveness as chytrid treatments for Haematococcus pluvialis during culturing. Cultures of Haematococcus pluvialis (Strain 1) red cyst cells infected with chytrids were treated in well plates (0.5 mL volume) with bleach or Lufenuron to evaluate the effect on the Haematococcus cells if bleach or Lufenuron were to be used as a contamination treatment. A first control culture of Haematococcus red cyst cells absent of chytrids and a second control culture of healthy Haematococcus red cyst cells inoculated with chytrids were used as comparisons for the treatments. The cultures were treated with bleach at or less than the tolerance level of Haematococcus: 0.01, 0.02 and 0.03 mL/L of 12.5% stock concentration bleach (calculated concentration 0.00125, 0.0025, and 0.00375 mL/L), or different concentrations of Lufenuron (0.01, 0.1 and 1% of culture volume). The cultures were observed under a microscope during the experiment to determine effectiveness.

pure chytrid culture = test: Chytrid tolerance: pure chytrid culture in well plate, observed under a microscope (Examples 13-14); format: cell-based; details: 40 ppm
Description: Experiments were performed to determine chytrid tolerance to bleach, salt, Lufenuron (chemical biocide), and Rid Fungus (blend of natural organic herbs) for evaluation as a treatment for chytrids. A pure chytrid culture in a well plate was treated every 24 hours and observed under a microscope to determine the effect. An untreated culture was used as a control for comparison purposes. Qualitative assessments and quantitative estimates were made by visual observation under a microscope.
Several concentrations of salt and Rid Fungus (blend of organic herbs) were further investigated as a chytrid treatment, as in Example 13. A pure chytrid culture in a well plate was treated and visually observed under a microscope to determine the effect. An untreated culture was used as a control for comparison purposes.

[2] = system: Haematococcus pluvialis (Strain 1)

[Na+].[OH-] [NaOH, sodium hydroxide]
reduction in chytrid zoospores or sporangia number or integrity [1]: not a reduction in chytrid zoospores or sporangia number or integrity

O=C(NC(=O)c1c(F)cccc1F)Nc1cc(Cl)c(OC(F)(F)C(F)C(F)(F)F)cc1Cl (stereo not drawn) [Lufenuron]
microscope observation of infected red cyst culture (chytrids; 0.01% of culture volume, after 24 and 48 hours): swimming zoospores and positive infection
microscope observation of infected red cyst culture (chytrids; 0.01% of culture volume, after 72 hours): Some swimming zoospores, Ochromonas (single-celled, motile, golden-brown alga), and active infection
microscope observation of infected red cyst culture (chytrids; 0.10% of culture volume, after 24 and 48 hours): dead sporangia, some infection, and active zoospores
microscope observation of infected red cyst culture (chytrids; 0.10% of culture volume, after 72 hours): Some swimming zoospores and active infection
microscope observation of infected red cyst culture (chytrids; 1.00% of culture volume, after 24 hours): dead sporangia and zoospores attached to cyst cells
microscope observation of infected red cyst culture (chytrids; 1.00% of culture volume, after 48 hours): Ochromonas, bacteria, dead sporangia, zoospores attached to cyst cells, and few swimming zoospores
microscope observation of infected red cyst culture (chytrids; 1.00% of culture volume, after 72 hours): Ochromonas, no active infection, and no zoospores
microscope observation of pure chytrid culture (pure chytrid culture; after 1 hour): swimming zoospores
microscope observation of pure chytrid culture (pure chytrid culture; after 24 hours): Swimming zoospores
microscope observation of pure chytrid culture (pure chytrid culture; after 48 hours and 72 hours): heavy bacteria with sporangia and zoospores

bleach
known tolerance of Haematococcus pluvialis (Strain 1) [2]: 0.00375 mL/L
